In the assay the target is T1, IgE-Tb / sFcεR1α-AF488 (WT soluble IgE receptor FcεR1α) (Homo sapiens, UniProt P01854, N146Q/N252Q, form not given).
T1 construct: fused on or other part: LanthaScreen amine-reactive terbium chelate, chemically conjugated (about 4 Tb per IgE-Fc); a label, not a fusion
The assay is described as follows: In vitro FRET assay of IgE-Tb binding to sFcεR1α-AF488 (WT), 18 hours incubation (examples 17-35, 48-52 and 63). Particulars: 0.75 nM IgE-Tb, 0.9 nM sFcεR1α-AF488; 18 hours at room temperature; read-out: FRET IC50 range. On the procedure: 86 nmoles of IgE-Fc(N265Q, N371Q) (Young et al., 1995) at 172 μM in 100 mM NaHCO3, pH 9.5 was added to 1 mg of LanthaScreen™ Amine Reactive Tb Chelate (ThermoFisher catalogue number PV3583) and incubated for 16 hours at 20° C. The material was then buffer exchanged into Phosphate Buffered Saline (being, 137 mM NaCl, 2.7 mM KCl, 10 mM Na2HPO4, 1.8 mM K2HPO4, pH 7.4) and the material quantified and the degree of Tb conjugation determined by measuring the absorption at 280 nm and 343 nm.
To a solution of 1.32 μmoles WT FcεR1α, at 377 μM, in 100 mM NaOAc pH 5.5, was slowly added 50 mM sodium periodate (70 μL) in 100 mM NaOAc, pH 5.5, with gentle mixing, to give a final concentration of 1 mM. […]
175 nmoles of protein was added to 1 mg of Alexa Fluor™ 488 hydrazide (Invitrogen) and incubated for 18 hours at 22° C. with gentle mixing. […] The material was quantified, and the degree of Alexa Fluor™ 488 conjugation determined by measuring the absorption at 280 nm and 497 nm. […]
The aim was to measure binding of IgE-Tb to receptor, and the inhibition thereof by compounds, using an in vitro Fluorescence Resonance Energy Transfer (FRET) Assay. […]
Measurement of FRET for each well was carried out by exciting at 337 nm and measuring emission at 490/520 nm using a PHERAstar FSX plate reader (BMG Labtech). FRET ratio was calculated as follows: […]

The structures appear in SMILES notation.

T1 sequence (P01854 whole entry C105A/N146Q/N252Q, form open, the tested form may be a part): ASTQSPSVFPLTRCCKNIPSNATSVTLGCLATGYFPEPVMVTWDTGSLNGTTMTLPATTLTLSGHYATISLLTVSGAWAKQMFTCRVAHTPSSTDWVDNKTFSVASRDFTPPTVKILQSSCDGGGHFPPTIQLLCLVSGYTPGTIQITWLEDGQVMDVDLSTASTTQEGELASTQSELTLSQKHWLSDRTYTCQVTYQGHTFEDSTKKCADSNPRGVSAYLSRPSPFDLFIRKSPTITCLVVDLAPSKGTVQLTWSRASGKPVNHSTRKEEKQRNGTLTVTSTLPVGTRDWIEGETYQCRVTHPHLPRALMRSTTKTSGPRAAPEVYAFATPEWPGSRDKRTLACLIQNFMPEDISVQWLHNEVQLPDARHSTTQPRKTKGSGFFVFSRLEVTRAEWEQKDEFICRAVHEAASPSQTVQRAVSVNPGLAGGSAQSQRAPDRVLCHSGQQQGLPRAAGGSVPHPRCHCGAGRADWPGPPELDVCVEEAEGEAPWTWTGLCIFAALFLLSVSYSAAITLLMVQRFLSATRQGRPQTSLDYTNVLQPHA

The term IC50 denotes the concentration needed to halve the response being measured. For the molecule `COc1ccc(CNC(=O)N[C@H]2C[C@H](Nc3cncc(OC)c3)c3c2cc(S(=O)(=O)NCC(C)C)c2cc(C4CC4)ncc32)cc1` (racemic) [Example 18, 1-[(4-methoxyphenyl)methyl]-3-[trans-(7R,9RS)-3-cyclopropyl-9-[(5-methoxypyridin-3-yl)amino]-5-(2-methylpropylsulfamoyl)-8,9-dihydro-7H-cyclopenta[h]isoquinolin-7-yl]urea], the IC50 was 1 to 10 nM.

The values are drawn from US20230192646A1, “DIHYDRO-CYCLOPENTA-ISOQUINOLINE DERIVATIVES” (UCB Biopharma SRL, priority 2019, published 2023).
